Test results published in ChEMBL document CHEMBL1833912, “Discovery of PF-184563, a potent and selective V1a antagonist for the treatment of dysmenorrhoea. The influence of compound flexibility on microsomal stability” (Bioorg Med Chem Lett, 2011).

Key:
Assay type in all cases: ADME, organism-based
Conditions in all cases: in vivo
[1] = Bioavailability in Sprague-Dawley rat at 2 mg/kg, iv and po
Rattus norvegicus = assay: Volume of distribution in Sprague-Dawley rat at 2 mg/kg, iv and po; set-up: dose 2 mg/kg, route oral
[2] = Tmax in Sprague-Dawley rat at 2 mg/kg, iv and po; set-up: dose 2 mg/kg, route oral
[3] = Cmax in Sprague-Dawley rat at 2 mg/kg, iv and po; set-up: dose 2 mg/kg, route oral

CN1Cc2cc(Cl)ccc2-n2c(nnc2C2CCN(c3ccccn3)CC2)C1
bioavailability [1]: 34%
Vd (Rattus norvegicus): 2.7 L/kg
Tmax [2]: 48 min
Cmax [3]: 97 ng/mL
